Experimental data published in patent US20060217370A1, “Compounds useful for the treatment and prevention of pain and screening methods therefor” (priority 2005, published 2006).

Legend:
Experiment in all cases: Receptor Selection and Amplification Technology (R-SAT) functional receptor assay
[1] = biological target: T1, human MrgX2 (Homo sapiens, UniProt Q96LB1); type: cell-based; conditions: for Human-X2 Eff(%): efficacy relative to STIA, nr = no response up to 10 micromolar; for EC50: transfected NIH3T3 cells, read-out: Human-X2 pEC50 (converted)
T1 construct: expressed in transfected cells; host or cells: NIH3T3
T1 sequence (Q96LB1 1-330): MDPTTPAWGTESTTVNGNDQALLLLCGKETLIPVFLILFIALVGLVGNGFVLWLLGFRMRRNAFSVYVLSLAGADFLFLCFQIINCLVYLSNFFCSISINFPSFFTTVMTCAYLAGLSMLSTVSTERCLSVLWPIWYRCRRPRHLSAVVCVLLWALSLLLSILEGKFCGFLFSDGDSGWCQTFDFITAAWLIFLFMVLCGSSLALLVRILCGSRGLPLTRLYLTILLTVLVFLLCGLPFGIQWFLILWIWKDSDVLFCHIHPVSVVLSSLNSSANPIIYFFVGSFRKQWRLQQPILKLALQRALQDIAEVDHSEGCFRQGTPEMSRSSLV
Protocol: (§1) The functional receptor assay, Receptor Selection and Amplification Technology (R-SAT), was used to investigate the pharmacological properties of test compounds on MRGX1 or MRGX2 receptors. R-SAT is disclosed in U.S. Pat. Nos. 5,707,798, 5,912,132, and 5,955,281, each of which is incorporated by reference herein in its entirety, including any drawings.
(§2) Briefly, NIH3T3 cells were grown in 96-well tissue culture plates to 70-80% confluence. Cells were transfected for 16-20 h with plasmid DNAs using Polyfect (Qiagen Inc.) and the manufacturer's protocols. R-SATs were generally performed with 4 ng/well of receptor and 20 ng/well of β-galactosidase plasmid DNA. The human MrgX1, simian MrgX1, human MrgX2 and simian MrgX2 receptor genes were amplified by PCR from genomic DNA using oligodeoxynucleotide primers based on SEQ ID NO:1, SEQ ID NO:3, SEQ ID NO:5, SEQ ID NO:7, or SEQ ID NO:9. For large-scale transfections, cells were transfected for 16-20 h, then trypsinized and frozen in DMSO. Frozen cells were later thawed, plated at ˜10,000 cells per well of a 96 half-area well plate that contained test compound. With both methods, cells were then grown in a humidified atmosphere with 5% ambient CO2 for five days. The medium was then removed from the plates and marker gene activity was measured by the addition of the β-galactosidase substrate o-nitrophenyl β-galactopyranoside (ONPG, in PBS with 0.5% NP-40). The resulting colorimetric reaction was measured in a spectrophotometric plate reader (Titertek Inc.) at 420 nm. All data were analyzed using the computer program XLFit (IDBSm). Efficacy is defined as the percent maximal activation compared to activation by a control compound (BAM22 in the case of human or simian MRGX1, STIA or Cortistatin-14 in the case of human or simian MRGX2). pEC50 is the negative of log(EC50), where EC50 is the calculated molar concentration of test compound that produces 50% of maximum activation.
(§3) Efficacy is reported relative to the ligands Bam22 for MrgX1 and STIA for MrgX2.

[2] = biological target: T2, human MrgX1 (Homo sapiens, UniProt Q96LB2); type: cell-based; conditions: for Human-X1 Eff(%): efficacy relative to Bam22, nr = no response up to 10 micromolar
T2 construct: expressed in transfected cells; host or cells: NIH3T3
T2 sequence (Q96LB2 whole entry): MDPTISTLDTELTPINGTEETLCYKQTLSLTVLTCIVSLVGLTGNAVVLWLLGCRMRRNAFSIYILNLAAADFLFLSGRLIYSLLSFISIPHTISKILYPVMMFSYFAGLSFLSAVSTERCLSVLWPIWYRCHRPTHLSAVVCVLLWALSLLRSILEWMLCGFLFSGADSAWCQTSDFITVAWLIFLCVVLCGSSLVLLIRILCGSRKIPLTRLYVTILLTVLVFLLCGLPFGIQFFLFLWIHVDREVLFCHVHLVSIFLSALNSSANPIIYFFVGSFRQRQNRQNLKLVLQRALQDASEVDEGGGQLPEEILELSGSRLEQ
Protocol: as §1, §2, §3

[3] = biological target: simian MrgX1 (Macaca mulatta, UniProt Q1L4E8, cells depend on it, form not given, species not given); type: cell-based, monkey; conditions: efficacy relative to Bam22, nr = no response up to 10 micromolar
Chain of simian MrgX1 (Q1L4E8 1-322, change not shown): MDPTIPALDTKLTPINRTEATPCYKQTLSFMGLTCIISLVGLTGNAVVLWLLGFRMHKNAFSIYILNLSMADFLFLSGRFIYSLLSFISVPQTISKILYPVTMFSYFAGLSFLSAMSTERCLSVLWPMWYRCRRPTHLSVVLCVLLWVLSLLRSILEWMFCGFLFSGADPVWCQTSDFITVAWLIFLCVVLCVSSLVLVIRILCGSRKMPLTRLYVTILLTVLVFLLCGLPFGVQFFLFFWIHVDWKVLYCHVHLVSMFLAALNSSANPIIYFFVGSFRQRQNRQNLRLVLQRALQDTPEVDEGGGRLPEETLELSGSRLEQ
Protocol: as §1
Briefly, NIH3T3 cells were grown in 96-well tissue culture plates to 70-80% confluence. Cells were transfected for 16-20 h with plasmid DNAs using Polyfect (Qiagen Inc.) and the manufacturer's protocols. R-SATs were generally performed with 4 ng/well of receptor and 20 ng/well of β-galactosidase plasmid DNA. The human MrgX1, simian MrgX1, human MrgX2 and simian MrgX2 receptor genes were amplified by PCR from genomic DNA using oligodeoxynucleotide primers based on SEQ ID NO:1, SEQ ID NO:3, SEQ ID NO:5, SEQ ID NO:7, or SEQ ID NO:9. For large-scale transfections, cells were transfected for 16-20 h, then trypsinized and frozen in DMSO. […] The medium was then removed from the plates and marker gene activity was measured by the addition of the β-galactosidase substrate o-nitrophenyl β-galactopyranoside (ONPG, in PBS with 0.5% NP-40). The resulting colorimetric reaction was measured in a spectrophotometric plate reader (Titertek Inc.) at 420 nm. All data were analyzed using the computer program XLFit (IDBSm). […]

Question: Which “Human-X2 Eff(%)” value [1] does the source give for CC[C@H](C)C1C(=O)Nc2ccc(NCCCN(C)C)cc2-c2nc3cc(C(=O)NCc4cccc(C(F)(F)F)c4)ccc3n21 (some centres unmarked) [Mrg-173] here?
Answer: 98%

Question: And the EC50 [1]?
Answer: 316 nM

Question: What about the “Human-X1 Eff(%)” value [2] of the same compound?
Answer: 124%

Question: And the EC50 ([2]; transfected NIH3T3 cells, read-out: Human-X1 pEC50 (converted))?
Answer: 39.8 nM

Question: How did the “Monkey-X1 Eff(%)” value [3] turn out when CC(C)C1C(=O)Nc2ccc(N3CCN(Cc4ccccc4)CC3)cc2-c2nc3cc(C(=O)N(C)C4CCN(C)CC4)ccc3n21 (centres unmarked) [Mrg-606] was run?
Answer: nr

Question: And the “Human-X2 Eff(%)” value [1]?
Answer: 174%

Question: What about the EC50 [1] of the same compound?
Answer: 100 nM

Question: What about the “Human-X1 Eff(%)” value [2] of the same compound?
Answer: nr
